The record followed here is the Kinase Knowledgebase extract (Sharma et al. 2016).

Assay [1] concerns the target EGFR (human) (UniProt P00533). The conditions noted are these: for IC50: ht-29; for inhibition: ht-29, concentration not given here.
Assay [2] has as its target EGFR (human) (UniProt P00533). To be noted: a431.
For assay [3], the target named is EGFR (human) (UniProt P00533). To be noted: sk-br-3.
Assay [4] concerns the target EGFR (human) (UniProt P00533). The conditions noted are these: sw 620.
In assay [5] the target is EGFR (human) (UniProt P00533). To be noted: mda-mb-435.

The structures appear in SMILES notation. Values after ≈ are worked out from the molar mass of the structure shown. Some results are limits rather than exact numbers.

Chain of EGFR (human) (P00533 whole entry, looked up): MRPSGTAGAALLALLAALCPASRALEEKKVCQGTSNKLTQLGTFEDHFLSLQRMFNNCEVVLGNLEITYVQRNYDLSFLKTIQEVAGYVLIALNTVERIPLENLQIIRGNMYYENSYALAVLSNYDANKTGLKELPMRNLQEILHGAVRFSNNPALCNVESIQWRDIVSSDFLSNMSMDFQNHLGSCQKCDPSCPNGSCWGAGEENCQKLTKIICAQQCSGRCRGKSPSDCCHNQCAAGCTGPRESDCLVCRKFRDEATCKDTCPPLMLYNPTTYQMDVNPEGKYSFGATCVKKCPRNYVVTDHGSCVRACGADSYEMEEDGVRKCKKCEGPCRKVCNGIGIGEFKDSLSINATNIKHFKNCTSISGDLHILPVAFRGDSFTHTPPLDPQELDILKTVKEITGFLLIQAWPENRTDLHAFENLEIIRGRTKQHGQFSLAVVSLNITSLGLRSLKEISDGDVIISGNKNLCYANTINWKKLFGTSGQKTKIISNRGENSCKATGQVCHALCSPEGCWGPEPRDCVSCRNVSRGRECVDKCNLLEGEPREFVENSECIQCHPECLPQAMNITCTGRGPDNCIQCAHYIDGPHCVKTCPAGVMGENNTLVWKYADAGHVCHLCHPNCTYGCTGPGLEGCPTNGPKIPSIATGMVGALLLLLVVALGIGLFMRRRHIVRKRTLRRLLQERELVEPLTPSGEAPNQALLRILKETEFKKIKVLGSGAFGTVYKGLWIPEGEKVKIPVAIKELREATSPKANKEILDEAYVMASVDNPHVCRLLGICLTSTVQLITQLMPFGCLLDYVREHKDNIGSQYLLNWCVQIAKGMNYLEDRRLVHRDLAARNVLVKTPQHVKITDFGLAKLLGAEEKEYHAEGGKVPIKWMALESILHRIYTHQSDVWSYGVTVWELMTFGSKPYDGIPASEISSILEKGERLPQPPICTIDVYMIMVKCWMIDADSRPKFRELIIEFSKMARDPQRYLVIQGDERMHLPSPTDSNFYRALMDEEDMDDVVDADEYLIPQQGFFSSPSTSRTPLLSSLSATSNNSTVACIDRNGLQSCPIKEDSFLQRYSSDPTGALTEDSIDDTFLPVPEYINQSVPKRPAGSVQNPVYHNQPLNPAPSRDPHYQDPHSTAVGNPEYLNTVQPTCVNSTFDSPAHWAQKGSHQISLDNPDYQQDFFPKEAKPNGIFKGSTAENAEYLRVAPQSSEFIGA

With `COc1cc(Nc2c(C#N)cnc3cc4cc(OCCN5CCOCC5)c(OC)cc4cc23)c(C)cc1Cl`, in assay [1], the IC50 – broadly, the concentration that inhibits the measured activity by half – is over 10 µM.
Consider `COc1cc(Nc2c(C#N)cnc3cc4cc(OCCN5CCN(C)CC5)c(OC)cc4cc23)c(C)cc1Cl`, for which the IC50 in assay [1] is 8.6 µM.
Regarding `COc1ccc(Cl)c(Nc2c(C#N)cnc3cc4nc[nH]c4cc23)c1`, the inhibition (commonly the relative decrease from the control value, in per cent) in assay [1] stood at 10%.
Regarding `COc1cc2cc3ncc(C#N)c(Nc4ccc(F)c(Cl)c4)c3cc2cc1OCCN1CCOCC1`, the IC50 stood at 0.76 µg/mL (≈ 1.5 µM) in assay [2], 0.04 µg/mL (≈ 0.0789 µM) in assay [3] and 0.36 µg/mL (≈ 0.71 µM) in assay [4].
As to `C=CC(=O)Nc1cccc2c1sc1c(Nc3cccc(Br)c3)c(C#N)cnc12`, the IC50 in assay [2] was 1.11 µg/mL (≈ 2.47 µM); in assay [3] it was 1.09 µg/mL (≈ 2.43 µM); in assay [4], over 5 µg/mL; in assay [5], 3.9 µg/mL (≈ 8.68 µM).
In the same order, the values of `C=CC(=O)Nc1ccc2sc3c(Nc4cccc(Br)c4)c(C#N)cnc3c2c1` are 0.838 µg/mL (≈ 1.86 µM), 0.224 µg/mL (≈ 0.499 µM), 1 µg/mL (≈ 2.23 µM) and 1.69 µg/mL (≈ 3.76 µM).
Consider `COc1cc(Nc2c(C#N)cnc3cc4cc(OCCN5CCOCC5)c(OC)cc4cc23)c(Cl)cc1C`, for which the IC50 in assay [1] is 9.95 µM.
For `N#Cc1cnc2c(sc3ccc([N+](=O)[O-])cc32)c1Nc1ccc(Cl)cc1Cl`, the IC50 in assay [2] was 0.41 µg/mL (≈ 0.987 µM); in assay [3], 0.59 µg/mL (≈ 1.42 µM); in assay [4], 0.67 µg/mL (≈ 1.61 µM); in assay [5], 0.46 µg/mL (≈ 1.11 µM).
Taken in the same sequence, the figures for `N#Cc1cnc2c(sc3ccc(N)cc32)c1Nc1cccc(Br)c1` were over 5 µg/mL, over 5 µg/mL, over 5 µg/mL and over 5 µg/mL.
Taken in the same sequence, the figures for `COc1cc2cc3c(Nc4ccc(OCc5ccccc5)c(Cl)c4)c(C#N)cnc3cc2cc1OCCN1CCOCC1` were 4.7 µg/mL (≈ 7.9 µM), 3.5 µg/mL (≈ 5.88 µM), 11.6 µg/mL (≈ 19.5 µM) and 33.5 µg/mL (≈ 56.3 µM).
In assay [1], `CCOc1cc2cc3c(Nc4cc(OC)c(Cl)cc4C)c(C#N)cnc3cc2cc1OCCN1CCOCC1` gave an IC50 of over 10 µM.
With `N#Cc1cnc2cc3ccccc3cc2c1Nc1ccc(F)c(Cl)c1`, the IC50 in assay [2] came out at 0.332 µg/mL (≈ 0.955 µM); in assay [3], 1.01 µg/mL (≈ 2.9 µM); in assay [4] it was 1.08 µg/mL (≈ 3.11 µM); in assay [5] it was 1.65 µg/mL (≈ 4.74 µM).
Take `COc1cc(Nc2c(C#N)cnc3cc4nc[nH]c4cc23)c(Br)cc1Cl`: the inhibition in assay [1] came out at 35%.
Regarding `N#Cc1cnc2cc3nc[nH]c3cc2c1Nc1cccc(Br)c1`, the IC50 amounted to 0.58 µg/mL (≈ 1.59 µM) in assay [2], 0.6 µg/mL (≈ 1.65 µM) in assay [3], 3.72 µg/mL (≈ 10.2 µM) in assay [4] and 3.48 µg/mL (≈ 9.56 µM) in assay [5].
Consider `N#Cc1cnc2cc3nc[nH]c3cc2c1Nc1ccc(Cl)cc1Br`, for which the inhibition in assay [1] amounted to 25%.
Consider `N#Cc1cnc2c(sc3ccccc32)c1Nc1cccc(Br)c1`, for which the 50% inhibitory concentration (IC50) in assay [2], in assay [3], in assay [4] and in assay [5] was over 5 µg/mL each time.
Turning to `COc1cc(Nc2c(C#N)cnc3cc4nc[nH]c4cc23)cc(OC)c1OC`, the inhibition in assay [1] worked out at 0%.
For the compound `N#Cc1cnc2c(oc3ccccc32)c1Nc1cccc(Br)c1`, the IC50 in assay [2], in assay [3], in assay [4] and in assay [5] was over 5 µg/mL throughout.
Take `N#Cc1cnc2cc3cc(O)c(O)cc3cc2c1Nc1ccc(Cl)cc1Cl`: the IC50 in assay [2] is 0.58 µg/mL (≈ 1.46 µM); in assay [3] it was over 5 µg/mL; in assay [4] it was 0.38 µg/mL (≈ 0.959 µM); in assay [5], 0.85 µg/mL (≈ 2.15 µM).
